The values below are quoted from earlier work in patent US20240317846A1 (priority 2021, published 2024).

Where two headings read alike, the source gives them in different places. Marks after values point to notes of the source that are not given here.

Data set [1] has as its system COVID-19. As to conditions: cited from earlier work; for Mean days to discharge: published cohorts; for Median days to discharge: published lopinavir-ritonavir cohort.
The subject of data set [2] is COVID-19. As to conditions: cited from earlier work.
Data set [3] deals with COVID-19. As to conditions: RECOVERY trial; cited from earlier work.

As for “lopinavir and ritonavir [Lopinavir/Ritonavir]”, in data set [1], the “Mean days to discharge” value was 13 days and the “Median days to discharge” value is given as 13** days. Moreover, the “Median days to discharge” value in data set [1] (listed as Lopinavir-Ritonavir) was 13 days.

For “Otilimab: monoclonal antibody targeting circulating GM-CSF”, the “Subjects alive and free of respiratory failure at 28 days” value in data set [2] (pre-planned analysis, subjects aged at least 70 years, standard of care 45.9%) is reported as 65.1%. Moreover, the “Primary endpoint (proportion alive and free of respiratory failure 28 days)” value in data set [2] (whole population) is listed as “not meet its primary endpoint”.

Consider “Tocilizumab: anti-IL6 receptor monoclonal antibody”, for which, in data set [3], the “Increased likelihood of survival” value is reported as 14%; the “Increased likelihood of survival without IMV” value is reported as 18%; the “Survival, Hazard Ratio” value was 1.14; the “Ventilator-Free Survival, Hazard Ratio” value was 1.18. Besides, the “Range of days to discharge” value in data set [1] (2 patients not discharged) is “(10-19)* days”. Besides, in data set [1], the “Mean days to discharge” value is on record as 13.5 days.
